Measurements reported in ChEMBL document CHEMBL5257124, “Design, synthesis and biological evaluation of novel indole-piperazine derivatives as antibacterial agents” (Bioorg Med Chem Lett, 2023).
Values after ≈ are worked out from the molar mass of the structure shown. Active and inactive are the calls of the source. The calls are words filed in the database; no cut-off is given here.

Legend:
[1] = system: Staphylococcus aureus; test: Antibacterial activity against methicillin resistant Staphylococcus aureus ATCC 33591 assessed as reduction in bacterial growth; type: functional
[2] = system: Staphylococcus aureus; test: Antibacterial activity against Staphylococcus aureus ATCC 25923 assessed as reduction in bacterial growth; type: functional
[3] = system: Bacillus cereus; test: Antibacterial activity against Bacillus cereus assessed as reduction in bacterial growth; type: functional
[4] = system: Escherichia coli; test: Antibacterial activity against Escherichia coli ATCC 25922 assessed as reduction in bacterial growth; type: functional
[5] = system: Pseudomonas syringae; test: Antibacterial activity against Pseudomonas syringae pv. actinidiae assessed as bacterial growth inhibition; type: functional
[6] = system: Ralstonia solanacearum; test: Antibacterial activity against Ralstonia solanacearum assessed as bacterial growth inhibition; type: functional
[7] = system: Staphylococcus aureus; test: Bactericidal activity against methicillin resistant Staphylococcus aureus ATCC 33591 assessed as reduction in bacterial growth; type: functional
[8] = system: Staphylococcus aureus; test: Bactericidal activity against Staphylococcus aureus ATCC 25923 assessed as reduction in bacterial growth; type: functional
[9] = system: Escherichia coli; test: Bactericidal activity against Escherichia coli ATCC 25922 assessed as reduction in bacterial growth; type: functional
[10] = system: Staphylococcus aureus; test: Antibacterial activity against methicillin resistant Staphylococcus aureus assessed as reduction in bacterial growth at 2 times MIC measured at 24 hrs by time kill assay; type: functional; set-up: scale not given: the % may be the effect or the level left
[11] = system: Staphylococcus aureus; test: Antibacterial activity against methicillin resistant Staphylococcus aureus assessed as reduction in bacterial growth at 4 times MIC measured at 24 hrs by time kill assay; type: functional; set-up: scale not given: the % may be the effect or the level left
[12] = system: Staphylococcus aureus; test: Antibacterial activity against methicillin resistant Staphylococcus aureus assessed as reduction in bacterial growth at 8 microg/ml measured for 2 hrs; type: functional; details: dose 8 µg/ml
[13] = system: Staphylococcus aureus; test: Antibacterial activity against methicillin resistant Staphylococcus aureus assessed as reduction in bacterial growth at 16 microg/ml measured for 2 hrs; type: functional; details: dose 16 µg/ml
[14] = system: Staphylococcus aureus; test: Drug resistance against Staphylococcus aureus assessed as fold increase in MIC measured after 19 passaging for 19 days; type: functional; details: time 19 day
[15] = system: BV-2; test: Cytotoxicity against mouse BV-2 cells assessed as inhibition of cell growth at 20 to 50 microg/ml measured for 24 hrs by MTT assay; type: toxicity, cell-based; details: bv-2, 24 h, dose 20-50 µg/ml
[16] = system: PC-12; test: Cytotoxicity against rat PC12 cells assessed as inhibition of cell growth at 20 to 50 microg/ml measured for 24 hrs by MTT assay; type: toxicity, cell-based; details: pc-12, 24 h, dose 20-50 µg/ml
[17] = system: Staphylococcus aureus; test: Antibacterial activity against methicillin resistant Staphylococcus aureus assessed as reduction in bacterial growth at 1 times MIC by time kill assay; type: functional, organism-based
[18] = system: Staphylococcus aureus; test: Antibacterial activity against methicillin resistant Staphylococcus aureus assessed as reduction in bacterial growth at 8 times MIC measured at 24 hrs by time kill assay; type: functional, organism-based
[19] = system: Staphylococcus aureus; test: Antibacterial activity against methicillin resistant Staphylococcus aureus assessed as reduction in bacterial growth at 8 times MIC measured at 12 hrs by time kill assay; type: functional; set-up: scale not given: the % may be the effect or the level left
[20] = system: Staphylococcus aureus; test: Antibacterial activity against methicillin resistant Staphylococcus aureus assessed as reduction in bacterial growth at 1 microg/ml measured for 2 hrs; type: functional; details: dose 1 µg/ml
[21] = system: Staphylococcus aureus; test: Antibacterial activity against methicillin resistant Staphylococcus aureus assessed as reduction in bacterial growth at 0.5 microg/ml measured for 2 hrs; type: functional; details: dose 0.5 µg/ml
[22] = target: Histone deacetylase 1 (Homo sapiens, UniProt Q13547); test: Inhibition of full length C-terminal His/FLAG tagged human recombinant HDAC1 (1 to 482 residues) expressed in baculovirus-infected Sf9 cells using RHK-K(Ac)-AMC as substrate incubated for 2 hrs
[23] = system: Staphylococcus aureus; test: Antibacterial activity against methicillin resistant Staphylococcus aureus assessed as reduction in bacterial growth at 2 microg/ml measured for 2 hrs; type: functional; details: dose 2 µg/ml

Sequence of Histone deacetylase 1 (Q13547 whole entry, the tested form may be a part): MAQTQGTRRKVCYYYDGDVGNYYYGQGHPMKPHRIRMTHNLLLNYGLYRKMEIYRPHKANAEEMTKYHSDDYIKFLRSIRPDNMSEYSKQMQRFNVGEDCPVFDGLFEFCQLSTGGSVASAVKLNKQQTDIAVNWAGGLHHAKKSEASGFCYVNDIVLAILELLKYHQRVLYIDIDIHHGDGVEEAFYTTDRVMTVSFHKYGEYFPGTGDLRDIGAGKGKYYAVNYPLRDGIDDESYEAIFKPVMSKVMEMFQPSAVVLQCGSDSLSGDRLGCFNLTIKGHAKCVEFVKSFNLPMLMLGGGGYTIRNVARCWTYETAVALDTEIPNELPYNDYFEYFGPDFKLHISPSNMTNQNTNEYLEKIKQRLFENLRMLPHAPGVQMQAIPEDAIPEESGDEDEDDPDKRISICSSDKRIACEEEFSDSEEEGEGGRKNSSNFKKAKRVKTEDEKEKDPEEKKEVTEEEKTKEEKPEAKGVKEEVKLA

Row | Compound | MIC [1] [µg/mL] | MIC [2] [µg/mL] | MIC [3] [µg/mL] | MIC [4] [µg/mL] | MIC [5] [µg/mL] | MIC [6] [µg/mL] | MBC [7] [µg/mL] | MBC [9] [µg/mL] | other results
1 | COc1ccc2[nH]cc(CN3CCN(Cc4ccc(C(F)(F)F)cc4N4CCCC4)CC3)c2c1 | 8 (≈ 16.9 µM) | 16 (≈ 33.9 µM) | 16 (≈ 33.9 µM) | 32 (≈ 67.7 µM) | 16 (≈ 33.9 µM) | 16 (≈ 33.9 µM) | – | – | –
2 | Fc1ccc2[nH]cc(CN3CCN(Cc4ccc(C(F)(F)F)cc4N4CCCC4)CC3)c2c1 | 8 (≈ 17.4 µM) | 16 (≈ 34.7 µM) | 8 (≈ 17.4 µM) | 128 (≈ 278 µM) | 128 (≈ 278 µM) | 128 (≈ 278 µM) | – | – | –
3 | Cn1cc(CN2CCN(Cc3ccc(Cl)cc3Cl)CC2)c2cc(Br)ccc21 | 4 (≈ 8.56 µM) | 8 (≈ 17.1 µM) | 8 (≈ 17.1 µM) | 16 (≈ 34.2 µM) | 16 (≈ 34.2 µM) | 32 (≈ 68.5 µM) | 8 (≈ 17.1 µM) | 16 (≈ 34.2 µM) | MBC [8]: 16 µg/mL (≈ 34.2 µM)
4 | Cn1cc(CN2CCN(Cc3ccc(Cl)cc3Cl)CC2)c2cc(C#N)ccc21 | 8 (≈ 19.4 µM) | 8 (≈ 19.4 µM) | 8 (≈ 19.4 µM) | 32 (≈ 77.4 µM) | 32 (≈ 77.4 µM) | 16 (≈ 38.7 µM) | – | – | –
5 | Clc1ccc(CN2CCN(Cc3c[nH]c4ccc(Br)cc34)CC2)c(Cl)c1 | 4 (≈ 8.83 µM) | 4 (≈ 8.83 µM) | 4 (≈ 8.83 µM) | 16 (≈ 35.3 µM) | 16 (≈ 35.3 µM) | 8 (≈ 17.7 µM) | 4 (≈ 8.83 µM) | 16 (≈ 35.3 µM) | MBC [8]: 8 µg/mL (≈ 17.7 µM); Activity [10]: 99.5%; Activity [11]: 99.9%; PAE [12]: 1.62 h; PAE [13]: 2.91 h; fold change (FC) [14]: <4; Activity [15]: Non-Toxic; Activity [16]: Non-Toxic
6 | Cn1cc(CN2CCN(Cc3ccc(Cl)cc3Cl)CC2)c2cc(F)ccc21 | 8 (≈ 19.7 µM) | 8 (≈ 19.7 µM) | 8 (≈ 19.7 µM) | 32 (≈ 78.8 µM) | 32 (≈ 78.8 µM) | 32 (≈ 78.8 µM) | – | – | –
7 | CO[C@H]1/C=C/O[C@@]2(C)Oc3c(C)c(O)c4c(O)c(c(/C=N/N5CCN(C)CC5)c(O)c4c3C2=O)NC(=O)/C(C)=C\C=C\[C@H](C)[C@H](O)[C@@H](C)[C@@H](O)[C@@H](C)[C@H](OC(C)=O)[C@@H]1C [RIFAMPIN] | 0.25 (≈ 0.304 µM) | 0.25 (≈ 0.304 µM) | – | 4 (≈ 4.86 µM) | – | – | 1 (≈ 1.22 µM) | 8 (≈ 9.72 µM) | MBC [8]: 2 µg/mL (≈ 2.43 µM); Activity [17]: Active; Activity [18]: Active; Activity [19]: 99.9%; PAE [20]: 3.45 h; PAE [21]: 1.8 h
8 | GENTAMICIN | > 128 | 4 | 8 | 4 | 8 | 16 | > 128 | 4 | MBC [8]: 8 µg/mL
9 | Cn1cc(CN2CCN(Cc3ccc(C(F)(F)F)cc3N3CCCC3)CC2)c2cc(Br)ccc21 | 8 (≈ 14.9 µM) | 16 (≈ 29.9 µM) | 16 (≈ 29.9 µM) | 32 (≈ 59.8 µM) | 16 (≈ 29.9 µM) | 16 (≈ 29.9 µM) | – | – | –
10 | N#Cc1ccc2[nH]cc(CN3CCN(Cc4ccc(C(F)(F)F)cc4N4CCCC4)CC3)c2c1 | 16 (≈ 34.2 µM) | 16 (≈ 34.2 µM) | 16 (≈ 34.2 µM) | 128 (≈ 274 µM) | 128 (≈ 274 µM) | 128 (≈ 274 µM) | – | – | –
11 | O=C1CN(Cc2ccc(C(=O)NO)cc2)C(=O)[C@H](Cc2c[nH]c3ccccc23)N1 | – | – | – | – | – | – | – | – | IC50 [22]: 405 nM
12 | FC(F)(F)c1ccc(CN2CCN(Cc3c[nH]c4ccc(Br)cc34)CC2)c(N2CCCC2)c1 | 8 (≈ 15.3 µM) | 8 (≈ 15.3 µM) | 8 (≈ 15.3 µM) | 32 (≈ 61.4 µM) | 32 (≈ 61.4 µM) | 32 (≈ 61.4 µM) | 16 (≈ 30.7 µM) | 32 (≈ 61.4 µM) | MBC [8]: 16 µg/mL (≈ 30.7 µM)
13 | Cn1cc(CN2CCN(Cc3ccc(C(F)(F)F)cc3N3CCCC3)CC2)c2cc(F)ccc21 | 8 (≈ 16.9 µM) | 8 (≈ 16.9 µM) | 8 (≈ 16.9 µM) | 32 (≈ 67.4 µM) | 32 (≈ 67.4 µM) | 32 (≈ 67.4 µM) | – | – | –
14 | Cn1cc(CN2CCN(Cc3ccc(C(F)(F)F)cc3N3CCCC3)CC2)c2cc([N+](=O)[O-])ccc21 | 128 (≈ 255 µM) | 128 (≈ 255 µM) | 128 (≈ 255 µM) | 128 (≈ 255 µM) | 128 (≈ 255 µM) | 128 (≈ 255 µM) | – | – | –
15 | O=[N+]([O-])c1ccc2[nH]cc(CN3CCN(Cc4ccc(Cl)cc4Cl)CC3)c2c1 | 8 (≈ 19.1 µM) | 8 (≈ 19.1 µM) | 8 (≈ 19.1 µM) | 32 (≈ 76.3 µM) | 32 (≈ 76.3 µM) | 32 (≈ 76.3 µM) | – | – | –
16 | Cn1cc(CN2CCN(Cc3ccc(Cl)cc3Cl)CC2)c2cc(Cl)ccc21 | 4 (≈ 9.46 µM) | 4 (≈ 9.46 µM) | 4 (≈ 9.46 µM) | 16 (≈ 37.8 µM) | 8 (≈ 18.9 µM) | 8 (≈ 18.9 µM) | 8 (≈ 18.9 µM) | 16 (≈ 37.8 µM) | MBC [8]: 8 µg/mL (≈ 18.9 µM); Activity [17]: Active; Activity [18]: Active; PAE [12]: 1.6 h; PAE [13]: 2.21 h; fold change (FC) [14]: <4; Activity [15]: Non-Toxic; Activity [16]: Non-Toxic
17 | Cn1cc(CN2CCN(Cc3ccc(C(F)(F)F)cc3N3CCCC3)CC2)c2cc(Cl)ccc21 | 64 (≈ 130 µM) | 32 (≈ 65.2 µM) | 32 (≈ 65.2 µM) | 64 (≈ 130 µM) | 64 (≈ 130 µM) | 64 (≈ 130 µM) | – | – | –
18 | N#Cc1ccc2[nH]cc(CN3CCN(Cc4ccc(Cl)cc4Cl)CC3)c2c1 | 8 (≈ 20 µM) | 16 (≈ 40.1 µM) | 8 (≈ 20 µM) | 32 (≈ 80.1 µM) | 32 (≈ 80.1 µM) | 32 (≈ 80.1 µM) | – | – | –
19 | Cn1cc(CN2CCN(Cc3ccc(Cl)cc3Cl)CC2)c2cc([N+](=O)[O-])ccc21 | 8 (≈ 18.5 µM) | 8 (≈ 18.5 µM) | 8 (≈ 18.5 µM) | 64 (≈ 148 µM) | 64 (≈ 148 µM) | 32 (≈ 73.8 µM) | – | – | –
20 | Cn1cc(CN2CCN(Cc3ccc(C(F)(F)F)cc3N3CCCC3)CC2)c2cc(C#N)ccc21 | 16 (≈ 33.2 µM) | 16 (≈ 33.2 µM) | 16 (≈ 33.2 µM) | 32 (≈ 66.4 µM) | 32 (≈ 66.4 µM) | 32 (≈ 66.4 µM) | – | – | –
21 | FC(F)(F)c1ccc(CN2CCN(Cc3c[nH]c4ccc(Cl)cc34)CC2)c(N2CCCC2)c1 | 4 (≈ 8.39 µM) | 4 (≈ 8.39 µM) | 4 (≈ 8.39 µM) | 16 (≈ 33.5 µM) | 8 (≈ 16.8 µM) | 8 (≈ 16.8 µM) | 8 (≈ 16.8 µM) | 32 (≈ 67.1 µM) | MBC [8]: 8 µg/mL (≈ 16.8 µM); Activity [18]: Active; PAE [12]: 0.36 h; PAE [13]: 0.61 h; Activity [15]: Non-Toxic; Activity [16]: Non-Toxic
22 | Fc1ccc2[nH]cc(CN3CCN(Cc4ccc(Cl)cc4Cl)CC3)c2c1 | 8 (≈ 20.4 µM) | 8 (≈ 20.4 µM) | 8 (≈ 20.4 µM) | 32 (≈ 81.6 µM) | 32 (≈ 81.6 µM) | 32 (≈ 81.6 µM) | – | – | –
23 | O=[N+]([O-])c1ccc2[nH]cc(CN3CCN(Cc4ccc(C(F)(F)F)cc4N4CCCC4)CC3)c2c1 | 16 (≈ 32.8 µM) | 16 (≈ 32.8 µM) | 16 (≈ 32.8 µM) | 32 (≈ 65.6 µM) | 32 (≈ 65.6 µM) | 32 (≈ 65.6 µM) | – | – | –
24 | Clc1ccc(CN2CCN(Cc3c[nH]c4ccc(Cl)cc34)CC2)c(Cl)c1 | 8 (≈ 19.6 µM) | 8 (≈ 19.6 µM) | 8 (≈ 19.6 µM) | 16 (≈ 39.1 µM) | 32 (≈ 78.3 µM) | 16 (≈ 39.1 µM) | – | – | –
25 | O=C(O)c1cn(C2CC2)c2cc(N3CCNCC3)c(F)cc2c1=O [CIPROFLOXACIN] | 0.5 (≈ 1.51 µM) | 0.5 (≈ 1.51 µM) | – | – | – | – | 2 (≈ 6.04 µM) | 1 (≈ 3.02 µM) | Activity [17]: Active; Activity [18]: Active; Activity [19]: 99.9%; PAE [20]: 1.22 h; PAE [23]: 1.58 h
